Test results as given in article PMC6409085, “Three odorant-binding proteins are involved in the behavioral response of Sogatella furcifera to rice plant volatiles” (PeerJ, 2019).
Values joined by “and” are separate entries in the source; they are usually repeats but may differ in a detail not shown here. Identical values can stand only once.

Tests used:
Assay in all cases: biochemical
Type in all cases: binding
[1] = molecular target: SfurOBP3 (Sogatella furcifera, UniProt V5T818); details: for Fluorescence competitive binding assay, fluorescence intensity: OBP3, three replicate columns
Sequence of SfurOBP3 (V5T818 entry or part of it): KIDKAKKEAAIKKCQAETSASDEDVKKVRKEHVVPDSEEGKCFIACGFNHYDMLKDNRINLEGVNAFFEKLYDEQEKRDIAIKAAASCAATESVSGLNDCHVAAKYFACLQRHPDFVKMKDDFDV
Outline: (§1)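 Protein 2.0 µM + 1-NPN 2.0 µM, 50 mM Tris-HCl pH 7.4; competitor odorants 2, 4 … 20 µM final; read 2 min post-addition, ex 337/em 390–490 nm; n=3. K1-NPN from 1-NPN titration/Scatchard; Ki from IC50 corrected for free 1-NPN.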

[2] = molecular target: SfurOBP11 (Sogatella furcifera, UniProt V5T6E3)
Sequence of SfurOBP11 (V5T6E3 entry or part of it): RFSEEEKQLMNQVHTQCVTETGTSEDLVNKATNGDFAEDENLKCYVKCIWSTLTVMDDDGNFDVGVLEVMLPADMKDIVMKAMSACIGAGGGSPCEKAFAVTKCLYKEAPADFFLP
Outline: as §1

[3] = molecular target: SfurOBP1 (Sogatella furcifera, UniProt V5T8N5); details: for Fluorescence competitive binding assay, fluorescence intensity: OBP1, three replicate columns
Sequence of SfurOBP1 (V5T8N5 entry or part of it): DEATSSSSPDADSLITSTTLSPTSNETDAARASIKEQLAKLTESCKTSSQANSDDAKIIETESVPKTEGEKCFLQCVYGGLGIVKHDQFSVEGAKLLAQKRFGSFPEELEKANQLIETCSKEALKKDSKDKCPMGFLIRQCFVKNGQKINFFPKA
Outline: as §1

[4] = molecular target: SfurOBP2 (Sogatella furcifera, UniProt V5T759)
Sequence of SfurOBP2 (V5T759 entry or part of it): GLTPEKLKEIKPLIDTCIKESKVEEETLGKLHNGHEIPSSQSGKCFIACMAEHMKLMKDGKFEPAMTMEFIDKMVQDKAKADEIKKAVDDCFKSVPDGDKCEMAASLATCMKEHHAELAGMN
Outline: as §1

## CCCCCCCCCCCCCCCC [n-hexadecane]
[1]; ligand concentration 2
  Fluorescence competitive binding assay, fluorescence intensity: 69046 and 56769 and 63691
[1]; ligand concentration 4
  Fluorescence competitive binding assay, fluorescence intensity: 61024 and 72407 and 63576
[1]; ligand concentration 6
  Fluorescence competitive binding assay, fluorescence intensity: 62953 and 54664 and 55739
[1]; ligand concentration 8
  Fluorescence competitive binding assay, fluorescence intensity: 48630 and 46017 and 57385
[1]; ligand concentration 10
  Fluorescence competitive binding assay, fluorescence intensity: 48455 and 41384 and 49192
[1]; ligand concentration 12
  Fluorescence competitive binding assay, fluorescence intensity: 44417 and 51591 and 51023
[1]; ligand concentration 14
  Fluorescence competitive binding assay, fluorescence intensity: 42917 and 40156 and 40042
[1]; ligand concentration 16
  Fluorescence competitive binding assay, fluorescence intensity: 37264 and 50015 and 45340
[1]; ligand concentration 18
  Fluorescence competitive binding assay, fluorescence intensity: 66503 and 59244 and 47400
[1]; ligand concentration 20
  Fluorescence competitive binding assay, fluorescence intensity: 55843 and 55740 and 43544
[1]; SfurOBP3, protein and 1-NPN both 2.0 µM, competitor 2-20 µM, read-out: IC50
  IC50: > 20 µM
[2]; SfurOBP11, protein and 1-NPN both 2.0 µM, competitor 2-20 µM, read-out: IC50
  IC50: > 20 µM
[2]; ligand concentration 2, replicate 1
  Fluorescence intensity, fluorescence competitive binding assay, OBP11: 21809
[2]; ligand concentration 2, replicate 2
  Fluorescence intensity, fluorescence competitive binding assay, OBP11: 24436
[2]; ligand concentration 2, replicate 3
  Fluorescence intensity, fluorescence competitive binding assay, OBP11: 21028
[2]; ligand concentration 4, replicate 1
  Fluorescence intensity, fluorescence competitive binding assay, OBP11: 21555
[2]; ligand concentration 4, replicate 2
  Fluorescence intensity, fluorescence competitive binding assay, OBP11: 21532
[2]; ligand concentration 4, replicate 3
  Fluorescence intensity, fluorescence competitive binding assay, OBP11: 20733
[2]; ligand concentration 6, replicate 1
  Fluorescence intensity, fluorescence competitive binding assay, OBP11: 20973
[2]; ligand concentration 6, replicate 2
  Fluorescence intensity, fluorescence competitive binding assay, OBP11: 20501
[2]; ligand concentration 6, replicate 3
  Fluorescence intensity, fluorescence competitive binding assay, OBP11: 20737
[2]; ligand concentration 8, replicate 1
  Fluorescence intensity, fluorescence competitive binding assay, OBP11: 20324
[2]; ligand concentration 8, replicate 2
  Fluorescence intensity, fluorescence competitive binding assay, OBP11: 20139
[2]; ligand concentration 8, replicate 3
  Fluorescence intensity, fluorescence competitive binding assay, OBP11: 20508
[2]; ligand concentration 10, replicate 1
  Fluorescence intensity, fluorescence competitive binding assay, OBP11: 20121
[2]; ligand concentration 10, replicate 2
  Fluorescence intensity, fluorescence competitive binding assay, OBP11: 20422
[2]; ligand concentration 10, replicate 3
  Fluorescence intensity, fluorescence competitive binding assay, OBP11: 20353
[2]; ligand concentration 12, replicate 1
  Fluorescence intensity, fluorescence competitive binding assay, OBP11: 19850
[2]; ligand concentration 12, replicate 2
  Fluorescence intensity, fluorescence competitive binding assay, OBP11: 19980
[2]; ligand concentration 12, replicate 3
  Fluorescence intensity, fluorescence competitive binding assay, OBP11: 19737
[2]; ligand concentration 14, replicate 1
  Fluorescence intensity, fluorescence competitive binding assay, OBP11: 21701
[2]; ligand concentration 14, replicate 2
  Fluorescence intensity, fluorescence competitive binding assay, OBP11: 22333
[2]; ligand concentration 14, replicate 3
  Fluorescence intensity, fluorescence competitive binding assay, OBP11: 21069
[2]; ligand concentration 16, replicate 1
  Fluorescence intensity, fluorescence competitive binding assay, OBP11: 21665
[2]; ligand concentration 16, replicate 2
  Fluorescence intensity, fluorescence competitive binding assay, OBP11: 22169
[2]; ligand concentration 16, replicate 3
  Fluorescence intensity, fluorescence competitive binding assay, OBP11: 22138
[2]; ligand concentration 18, replicate 1
  Fluorescence intensity, fluorescence competitive binding assay, OBP11: 22525
[2]; ligand concentration 18, replicate 2
  Fluorescence intensity, fluorescence competitive binding assay, OBP11: 23830
[2]; ligand concentration 18, replicate 3
  Fluorescence intensity, fluorescence competitive binding assay, OBP11: 23178
[2]; ligand concentration 20, replicate 1
  Fluorescence intensity, fluorescence competitive binding assay, OBP11: 23218
[2]; ligand concentration 20, replicate 2
  Fluorescence intensity, fluorescence competitive binding assay, OBP11: 23600
[2]; ligand concentration 20, replicate 3
  Fluorescence intensity, fluorescence competitive binding assay, OBP11: 23432
[3]; ligand concentration 2 (μM)
  Fluorescence competitive binding assay, fluorescence intensity: 5137 and 5021 and 5229
[3]; ligand concentration 4 (μM)
  Fluorescence competitive binding assay, fluorescence intensity: 5910 and 6306 and 5547
[3]; ligand concentration 6 (μM)
  Fluorescence competitive binding assay, fluorescence intensity: 6300 and 6430 and 6367
[3]; ligand concentration 8 (μM)
  Fluorescence competitive binding assay, fluorescence intensity: 6419 and 6500 and 6466
[3]; ligand concentration 10 (μM)
  Fluorescence competitive binding assay, fluorescence intensity: 6532 and 6517 and 6502
[3]; ligand concentration 12 (μM)
  Fluorescence competitive binding assay, fluorescence intensity: 6620 and 6292 and 6471
[3]; ligand concentration 14 (μM)
  Fluorescence competitive binding assay, fluorescence intensity: 6713 and 6503 and 6353
[3]; ligand concentration 16 (μM)
  Fluorescence competitive binding assay, fluorescence intensity: 6541 and 6507 and 6533
[3]; ligand concentration 18 (μM)
  Fluorescence competitive binding assay, fluorescence intensity: 7558 and 7106 and 6654
[3]; ligand concentration 20 (μM)
  Fluorescence competitive binding assay, fluorescence intensity: 6949 and 7724 and 7337
[3]; SfurOBP1, protein and 1-NPN both 2.0 µM, competitor 2-20 µM, read-out: IC50
  IC50: > 20 µM
[4]; SfurOBP2, protein and 1-NPN both 2.0 µM, competitor 2-20 µM, read-out: IC50
  IC50: 17.4 µM
[4]; ligand concentration 2 (unit not given), replicate column 1 of 3
  Fluorescence competitive binding assay, OBP2 (raw fluorescence reading): 13495
[4]; ligand concentration 2 (unit not given), replicate column 2 of 3
  Fluorescence competitive binding assay, OBP2 (raw fluorescence reading): 16165
[4]; ligand concentration 2 (unit not given), replicate column 3 of 3
  Fluorescence competitive binding assay, OBP2 (raw fluorescence reading): 17504
[4]; ligand concentration 4 (unit not given), replicate column 1 of 3
  Fluorescence competitive binding assay, OBP2 (raw fluorescence reading): 14292
[4]; ligand concentration 4 (unit not given), replicate column 2 of 3
  Fluorescence competitive binding assay, OBP2 (raw fluorescence reading): 14770
[4]; ligand concentration 4 (unit not given), replicate column 3 of 3
  Fluorescence competitive binding assay, OBP2 (raw fluorescence reading): 18258
[4]; ligand concentration 6 (unit not given), replicate column 1 of 3
  Fluorescence competitive binding assay, OBP2 (raw fluorescence reading): 13188
[4]; ligand concentration 6 (unit not given), replicate column 2 of 3
  Fluorescence competitive binding assay, OBP2 (raw fluorescence reading): 14373
[4]; ligand concentration 6 (unit not given), replicate column 3 of 3
  Fluorescence competitive binding assay, OBP2 (raw fluorescence reading): 14976
[4]; ligand concentration 8 (unit not given), replicate column 1 of 3
  Fluorescence competitive binding assay, OBP2 (raw fluorescence reading): 12682
[4]; ligand concentration 8 (unit not given), replicate column 2 of 3
  Fluorescence competitive binding assay, OBP2 (raw fluorescence reading): 13401
[4]; ligand concentration 8 (unit not given), replicate column 3 of 3
  Fluorescence competitive binding assay, OBP2 (raw fluorescence reading): 14572
[4]; ligand concentration 10 (unit not given), replicate column 1 of 3
  Fluorescence competitive binding assay, OBP2 (raw fluorescence reading): 12390
[4]; ligand concentration 10 (unit not given), replicate column 2 of 3
  Fluorescence competitive binding assay, OBP2 (raw fluorescence reading): 12956
[4]; ligand concentration 10 (unit not given), replicate column 3 of 3
  Fluorescence competitive binding assay, OBP2 (raw fluorescence reading): 13308
[4]; ligand concentration 12 (unit not given), replicate column 1 of 3
  Fluorescence competitive binding assay, OBP2 (raw fluorescence reading): 11320
[4]; ligand concentration 12 (unit not given), replicate column 2 of 3
  Fluorescence competitive binding assay, OBP2 (raw fluorescence reading): 12682
[4]; ligand concentration 12 (unit not given), replicate column 3 of 3
  Fluorescence competitive binding assay, OBP2 (raw fluorescence reading): 13112
[4]; ligand concentration 14 (unit not given), replicate column 1 of 3
  Fluorescence competitive binding assay, OBP2 (raw fluorescence reading): 11586
[4]; ligand concentration 14 (unit not given), replicate column 2 of 3
  Fluorescence competitive binding assay, OBP2 (raw fluorescence reading): 11754
[4]; ligand concentration 14 (unit not given), replicate column 3 of 3
  Fluorescence competitive binding assay, OBP2 (raw fluorescence reading): 12906
[4]; ligand concentration 16 (unit not given), replicate column 1 of 3
  Fluorescence competitive binding assay, OBP2 (raw fluorescence reading): 10605
[4]; ligand concentration 16 (unit not given), replicate column 2 of 3
  Fluorescence competitive binding assay, OBP2 (raw fluorescence reading): 10448
[4]; ligand concentration 16 (unit not given), replicate column 3 of 3
  Fluorescence competitive binding assay, OBP2 (raw fluorescence reading): 11282
[4]; ligand concentration 18 (unit not given), replicate column 1 of 3
  Fluorescence competitive binding assay, OBP2 (raw fluorescence reading): 14498
[4]; ligand concentration 18 (unit not given), replicate column 2 of 3
  Fluorescence competitive binding assay, OBP2 (raw fluorescence reading): 14899
[4]; ligand concentration 18 (unit not given), replicate column 3 of 3
  Fluorescence competitive binding assay, OBP2 (raw fluorescence reading): 13250
[4]; ligand concentration 20 (unit not given), replicate column 1 of 3
  Fluorescence competitive binding assay, OBP2 (raw fluorescence reading): 13545
[4]; ligand concentration 20 (unit not given), replicate column 2 of 3
  Fluorescence competitive binding assay, OBP2 (raw fluorescence reading): 12591
[4]; ligand concentration 20 (unit not given), replicate column 3 of 3
  Fluorescence competitive binding assay, OBP2 (raw fluorescence reading): 11415
